Here are results for 23 compounds from patent publication US4138492A, “Aromatic amides of heterocyclic compounds and therapeutic compositions containing same” (priority 1974, dated 1979).

Structures can show the parent of a compound that is named as a salt. Where two headings read alike, the source gives them in different places.

The nature of one data set: in vivo. The note with it: rat, po.
The test system of data set [1] is apomorphine-induced gnawing. Put plainly: Antiapomorphine activity (apomorphine-induced gnawing) in the rat. Format: in vivo. From the text:
A number of the compounds of the present invention were screened in parallel with metoclopramide for potential anti-emetic effects against apomorphine-induced gnawing in the rat and as local anaesthetics on the rat sciatic nerve (Table I).
*Antiapomorphine activity in rat scored as […]

In data set [2] the test system is spontaneous motor activity. The note with it: mouse, in vivo.
Data set [3] concerns convulsions induced by strychnine. As to the kind of experiment: Strychnine-induced convulsions in the mouse. Type of data set: in vivo.
The subject of the next data set is oxotremorine. The note with it: mouse, in vivo.
Data set [4] relates to gastric emptying time in humans. Put plainly: Gastric emptying in humans, evaluated by radiologist. Format: in vivo. Also on record: key to effect on gastric emptying: +: no effect; ++: moderate effect; +++: good effect; ++++: maximum effect. The note with it: 10-20 mgs; as a guide. From the text: The evaluation was based on the subjective opinion of the radiologist in terms of the time required for the appearance of peristaltic waves and their capacity to evacuate. the stomach, according to the following scheme:

The subject of the next data set is catatonia in rats. The settings on record: rat, in vivo.
The next data set concerns incoordination. The note with it: mouse, in vivo.
Data set [5] has as its system apomorphine-induced vomiting. Put plainly: Apomorphine-induced vomiting in the dog. Type of data set: in vivo. The note with it: Canis lupus familiaris, po, per os, Table II, read-out: ED50 (95% confidence limits), apomorphine induced vomiting.
In a further data set the test system is healthy male volunteers. Put plainly: Acute tolerance following intramuscular and intravenous administration in humans. Type of data set: in vivo. The procedure: Another study has been made to investigate the acute tolerance of the malate salt of Clebopride following intramuscular and intravenous administration in humans.
The subjects used were healthy male volunteers between 20 and 24 years of age and were divided into 8 groups and dosed with the test compound according to the following scheme:
Group I: 1 mg intramuscular per day for 5 days
Group II: 1.5 mgs intrasmuscular per day for 5 days
Group III: 2 mgs intramuscular per day for 5 days
Group IV: 0.25 mg intravenously per day for 5 days
Group V: 0.50 mg intravenously per day for 5 days
Group VI: 1 mg intravenously per day for 5 days
Group VII: 1.5 mgs intravenously per day for 5 days
Group VIII: 2 mgs intravenously per day for 5 days
The parameters evaluated were subjective symptoms; psychic disturbances; neurological disturbances; autonomic symptoms; digestive disturbances; urogenital disturbances; skin and mucous membranes; pulse; blood pressure; temperature; other side effects; blood analysis--leucocytes formula, hemoglobin content, erythrocyte sedimentation rate, glucose, cholesterol, urea, hepatic function tests, transaminasas; and urine analysis--density, albumin, sediment.

Data set [6] can be described thus: Pharmacokinetics after oral administration of high doses of the malate salt. Format: in vivo.
Setting [7] is: Rattus norvegicus, po; per os; Table I; read-out: ED50 Values.
The mark [8] stands for this setting: Rattus norvegicus; read-out: Antiapomorphine in rat.
Where [9] appears, read: compared with metoclopramide; from Table I.

By ED50 is commonly meant the midpoint of the dose-response relation. `CN(C)CCCN1c2ccccc2Sc2ccc(Cl)cc21` [Chlorpromazine, reference compound] yielded a TD50 in the data set “in vivo” of 12.3 mg/kg. The ED50 in data set [1] (Rattus norvegicus, po, read-out: Antiapomorphine Activity, Rats, ED50 (95% confidence limits)) came out at 7.95 mg/kg. In addition, in data set [1] (Rattus norvegicus, read-out: Antiapomorphine in rat), the minimal effective dose was found to be 6.25 mg/kg.
In the case of `COc1cc(NC(C)=O)c(Cl)cc1C(=O)NC1CCN(Cc2ccccc2)CC1` [Compound 1, N-[4'-(1'-benzyl)piperidyl]-2-methoxy-4-acetamido-5-chlorobenzamide], the 50% effective dose (ED50) in data set [1] (setting [7]) was approximately 25 mg/kg. The minimal effective dose in data set [1] (setting [8]) was 12.5 mg/kg.
In the case of `COc1cc(NC(=O)CCl)c(Cl)cc1C(=O)NC1CCN(Cc2ccccc2)CC1` [Compound 3, N-[4'-(1'-benzyl)piperidyl]-2-methoxy-4-(α-chloroacetamido)-5-chlorobenzamide hydrochloride], in data set [1] (setting [7]), the ED50 was less than 25 mg/kg. Besides, the minimal effective dose in [1] (setting [8]) was 6.25 mg/kg. Besides, the “activity as an anti-emetic” value in [1] (setting [9]) is “more active as an anti-emetic”.
For `COc1cc(NC(=O)CN2CCCCC2)c(Cl)cc1C(=O)NC1CCN(Cc2ccccc2)CC1` [Compound 4, N-[4'-(1'-benzyl)piperidyl] -2-methoxy-4-α-(1"-piperidyl) acetamido-5-chlorobenzamide dihydrochloride], the ED50 in data set [1] (setting [7]) was approximately 12 mg/kg. The minimal effective dose in data set [1] (setting [8]) amounted to 12.5 mg/kg.
As to `COc1cc(NC(=O)CCl)ccc1C(=O)NC1CCN(Cc2ccccc2)CC1` [Compound 5, N-[4'-(1'-benzyl)piperidyl]-2-methoxy-4-α-chloroacetamidobenzamide hydrochloride], the minimal effective dose in [1] (setting [8]) was 25 mg/kg.
Regarding `O=C(CCl)Nc1ccc(C(=O)NC2CCN(Cc3ccccc3)CC2)cc1` [Compound 6, N-[4'-(1'-benzyl)piperidyl]-4-(α-chloroacetamido) benzamide hydrochloride], the minimal effective dose in data set [1] (setting [8]) came out at 50 mg/kg.
With `COc1cc(NC(=O)C(F)(F)F)ccc1C(=O)NC1CCN(Cc2ccccc2)CC1` [Compound 7, N-[4'-(1'-benzyl)piperidyl]-2-methoxy-4-(α,α,α-trifluoroacetamido) benzamide hydrochloride], the ED50 in [1] (setting [7]) was less than 25 mg/kg. The minimal effective dose in [1] (setting [8]) is 25 mg/kg.
As for `COc1cc(N)ccc1C(=O)NC1CCN(Cc2ccccc2)CC1` [Compound 8, N-[4'-(1'-benzyl)-piperidyl]-2-methoxy-4-aminobenzamide dihydrochloride], the ED50 in [1] (setting [7]) is less than 25 mg/kg. The minimal effective dose in data set [1] (setting [8]) is 6.25 mg/kg. Also, the “activity as an anti-emetic” value in data set [1] (setting [9]) is recorded as “more active as an anti-emetic”.
In the case of `COc1cc(NC(=O)C(F)(F)F)c(Cl)cc1C(=O)NC1CCN(Cc2ccccc2)CC1` [Compound 9, N-[4'-(1'-benzyl)piperidyl]-2-methoxy-4-(α,α, α-trifluoroacetamido)-5-chlorobenzamide hydrochloride], the ED50 in data set [1] (setting [7]) is less than 25 mg/kg. In [1] (setting [8]), the minimal effective dose was found to be 3.12 mg/kg. In addition, the “activity as an anti-emetic” value in [1] (setting [9]) is “more active as an anti-emetic”.
As to `COc1ccc(Cl)cc1C(=O)NC1CCN(Cc2ccccc2)CC1` [Compound 10, N-[4'-(1'-benzyl)piperidyl]-2-methoxy-5-chlorobenzamide hydrochloride], in data set [1] (setting [8]), the minimal effective dose stood at 50 mg/kg.
`COc1cc(N)c(Cl)cc1C(=O)NC1CCN(Cc2ccc(Cl)cc2)CC1` [Compound 12, N-[4'-(1'-p-chlorobenzyl)-piperidyl]-2-methoxy-4-amino-5-chloro-benzamide hydrochloride]: the minimal effective dose in [1] (setting [8]) was determined as 3.12 mg/kg. Besides, the “activity as an anti-emetic” value in [1] (setting [9]) is “more active as an anti-emetic”.
Turning to `COc1cccc(CN2CCC(NC(=O)c3cc(Cl)c(N)cc3OC)CC2)c1` [Compound 13, N-[4'-(1'-m-methoxy-benzyl)-piperidyl]-2-methoxy-4-amino-5-chloro-benzamidehydrochloride], in [1] (setting [8]), the minimal effective dose stood at 25 mg/kg.
On to `COc1cc(N)c(Cl)cc1C(=O)NC1CCN(Cc2cccs2)CC1` [Compound 14], for which the minimal effective dose in [1] (setting [8]) came out at 12.5 mg/kg.
Turning to `COc1cc(N)c(Cl)cc1C(=O)NC1CCN(Cc2ccc3c(c2)OCO3)CC1` [Compound 15], in data set [1] (setting [8]), the minimal effective dose was 6.25 mg/kg. Also, the “activity as an anti-emetic” value in data set [1] (setting [9]) is given as “more active as an anti-emetic”.
On to `COc1cc(N)c(Cl)cc1C(=O)NC1CCN(CC=Cc2ccccc2)CC1` [Compound 16, N-[4'-(1'-cinnamyl)-piperidyl]-2-methoxy-4-amino-5-chlorobenzamide hydrochloride], for which the minimal effective dose in data set [1] (setting [8]) came to 25 mg/kg.
In the case of `COc1cc(N)c(Cl)cc1C(=O)NC1CCN(Cc2cccc(Cl)c2)CC1` [Compound 17, N-[4'-(1'-m-chlorobenzyl)-piperidyl]-2-methoxy-4-amino-5-chloro-benzamide hydrochloride], in data set [1] (setting [8]), the minimal effective dose was determined as 12.5 mg/kg.
In the case of `COc1ccc(CN2CCC(NC(=O)c3cc(Cl)c(N)cc3OC)CC2)cc1` [Compound 18, N-[4'-(1'-p-methoxy-benzyl)-piperidyl]-2-methoxy-4-amino-5-chloro-benzamidehydrochloride], in data set [1] (setting [8]), the minimal effective dose was determined as 3.12 mg/kg. Moreover, the “activity as an anti-emetic” value in data set [1] (setting [9]) is “more active as an anti-emetic”.
As for `COc1cc(N)c(Cl)cc1C(=O)NC1CCN(C(c2ccccc2)c2ccccc2)CC1` [Compound 19, N-[4'-(1'-diphenyl-methyl)-piperidyl]-2-methoxy-4-amino-5-chloro-benzamide hydrochloride], the minimal effective dose in [1] (setting [8]) turned out to be 50 mg/kg.
In the case of `COc1ccccc1CN1CCC(NC(=O)c2cc(Cl)c(N)cc2OC)CC1` [Compound 20, N-[4'-(1'-o-methoxy-benzyl)-piperidyl]-2-methoxy-4-amino-5-chloro-benzamide], the minimal effective dose in data set [1] (setting [8]) worked out at 25 mg/kg.
With `COc1cc(N)c(Cl)cc1C(=O)NC1CCN(Cc2ccccc2Cl)CC1` [Compound 21, N-[4'-(1'-o-chlorobenzyl)-piperidyl]-2-methoxy-4-amino-5-chloro-benzamide hydrochloride], in data set [1] (setting [8]), the minimal effective dose was 25 mg/kg.
`CCN(CC)CCNC(=O)c1cc(Cl)c(N)cc1OC` [Metoclopramide, reference compound]: in [2], the spontaneous motor activity result is recorded as “inhibit spontaneous motor activity”. For the same compound, the “inhibition of convulsions induced by strychnine” value in [3] is listed as “neither Clebopride nor metoclopramide appear to inhibit convulsions induced by strychnine”. This compound also returned a TD50 in “in vivo” of 93 mg/kg. Besides, the salivation and tremors result in the data set on oxotremorine was “capable of causing salivation and tremors”. Further, the “effect on gastric emptying” value in [4] was “+++”. Moreover, the “antiemetic doses compared with those causing catatonia” value with catatonia in rats was “at doses which are far removed from those causing catatonia”. The ED50 in [1] (setting [7]) was approximately 6 mg/kg; in data set [1] (Rattus norvegicus, po; rats; per os; Table III; read-out: Antiapomorphine Activity, Rats, ED50 (95% confidence limits)), 11.8 mg/kg; in data set [5], 0.343 mg/kg. Further, in [1] (setting [8]), the minimal effective dose was 12.5 mg/kg. The incoordination result in the data set with incoordination was “cause incoordination”.
As for `COc1ccc(S(N)(=O)=O)cc1C(=O)NC1CCN(Cc2ccccc2)CC1` [N-[4'-(1'-benzyl)piperidyl]-2-methoxy-5-sulphamoylbenzamide hydrochloride], the “antiapomorphine activity in the rat” value in data set [1] (even at high doses) is listed as “do not exhibit antiapomorphine activity in the rat even at high doses”.
For the compound `COc1cc(N)c(Cl)cc1C(=O)NC1CCN(Cc2ccccc2)CC1` [malate salt of Clebopride, N-[4'-(1'-benzyl)piperidyl]-2-methoxy-4-amino-5-chlorobenzamide malate], the side effects result with healthy male volunteers (Group I: 1 mg intramuscular per day for 5 days, four subjects) was “one case of slight sleepiness was noted from the second day of treatment”. For the same compound, the side effects entry with healthy male volunteers (Group II: 1.5 mgs intramuscular per day for 5 days, four subjects) is “Tiredness, sleepiness and fatigue in three of the four subjects in Group II accompanied with slight depression”. Moreover, the side effects entry in the data set on healthy male volunteers (Group III: 2 mgs intramuscular per day for 5 days, four subjects) was “Three of the four subjects in Group III showed sleepiness, fatigue and depression followed by euphoria”. Moreover, the “blood and urine analysis” value in the data set with healthy male volunteers (Groups II and VII) is reported as “no significant variations”. For the same compound, in the data set with healthy male volunteers (Groups IV to VIII, intravenous), the “dose dependence of side effects” value is on record as “not to be dose dependent”. Further, in the data set on healthy male volunteers (Groups IV to VIII: 0.25 to 2 mgs intravenously per day for 5 days), the side effects result was “Sleepiness, fatigue and depression of medium intensity were seen in many patients”. In addition, in the data set on healthy male volunteers (Groups VII and VIII: 1.5 and 2 mgs intravenously per day for 5 days), the additional side effects entry is “some degree of sweating, hypersalivation and dryness of the mouth were variously seen”. Besides, in [6] (high doses), the absorption entry is reported as “good absorption”, the “appearance of metabolites in blood” value was “rapid appearance of metabolites in blood”, the peak levels entry is “rapidly appearing peak levels” and the plasma concentrations entry is “relatively low plasma concentrations”. Besides, the “first pass metabolism and/or uptake in the liver” value in data set [6] (suggested) is recorded as “extensive first pass metabolism and/or uptake take place in the liver”.
